# Columns and labels:
# Assay in all cases: cells
# COLO-800 = type: functional, cell-based, Homo sapiens; settings: Homo sapiens, COLO-800;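 further: growth inhibition of COLO-800 cells, read out with a cell viability assay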
# Description: SANGER: Inhibition of human COLO-800 cell growth in a cell viability assay.
# AM-38 = type: functional, cell-based, Homo sapiens; settings: Homo sapiens, AM-38;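 further: growth inhibition of AM-38 cells of human origin, read out by a cell viability assay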
# Description: SANGER: Inhibition of human AM-38 cell growth in a cell viability assay.
# HEL = type: functional, cell-based, Homo sapiens; settings: Homo sapiens, HEL;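 further: growth inhibition of HEL cells, read out with a cell viability assay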
# Description: SANGER: Inhibition of human HEL cell growth in a cell viability assay.
# RCC10RGB = type: functional, cell-based, Homo sapiens; settings: Homo sapiens, RCC10RGB;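 further: growth inhibition of human RCC10RGB cells, read out by a cell viability assay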
# Description: SANGER: Inhibition of human RCC10RGB cell growth in a cell viability assay.
# GI-1 = type: functional, cell-based, Homo sapiens; settings: Homo sapiens, GI-1;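 further: growth inhibition of human GI-1 cells, measured with a cell viability readout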
# Description: SANGER: Inhibition of human GI-1 cell growth in a cell viability assay.
# SK-MEL-1 = type: functional, cell-based, Homo sapiens; settings: Homo sapiens, SK-MEL-1;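 further: growth inhibition of human SK-MEL-1 cells, read out by a cell viability assay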
# Description: SANGER: Inhibition of human SK-MEL-1 cell growth in a cell viability assay.
# D-502MG = type: functional, cell-based, Homo sapiens; settings: Homo sapiens, D-502MG
# Description: SANGER: Inhibition of human D-502MG cell growth in a cell viability assay.
# NEC8 = type: functional, cell-based, Homo sapiens; settings: Homo sapiens, NEC8;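 further: growth inhibition of human NEC8 cells, read out by a cell viability assay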
# Description: SANGER: Inhibition of human NEC8 cell growth in a cell viability assay.
# EW-1 = type: functional, cell-based, Homo sapiens; settings: Homo sapiens, EW-1;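 further: growth inhibition of the human EW-1 cell line, read out by a cell viability assay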
# Description: SANGER: Inhibition of human EW-1 cell growth in a cell viability assay.
# NB13 = type: functional, cell-based, Homo sapiens; settings: Homo sapiens, NB13;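 further: cell viability readout measuring growth inhibition of human NB13 cells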
# Description: SANGER: Inhibition of human NB13 cell growth in a cell viability assay.
# NCI-H446 = type: functional, cell-based, Homo sapiens; settings: Homo sapiens, NCI-H446;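 further: growth inhibition of NCI-H446 cells determined by a cell viability assay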
# Description: SANGER: Inhibition of human NCI-H446 cell growth in a cell viability assay.
# NB69 = type: functional, cell-based, Homo sapiens; settings: Homo sapiens, NB69;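 further: growth inhibition of NB69 cells, determined by a cell viability assay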
# Description: SANGER: Inhibition of human NB69 cell growth in a cell viability assay.
# Becker = type: functional, cell-based, Homo sapiens; settings: Homo sapiens, Becker;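 further: growth inhibition of Becker cells, read out with a cell viability assay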
# Description: SANGER: Inhibition of human Becker cell growth in a cell viability assay.
# HCE-T = type: functional, cell-based, Homo sapiens; settings: Homo sapiens, HCE-T;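 further: cell viability assay read-out, reporting inhibition of HCE-T cell growth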
# Description: SANGER: Inhibition of human HCE-T cell growth in a cell viability assay.
# SF-126 = type: functional, cell-based, Homo sapiens; settings: Homo sapiens, SF-126;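 further: growth inhibition of human SF126 cells, read out with a cell viability assay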
# Description: SANGER: Inhibition of human SF126 cell growth in a cell viability assay.
# LU-139 = type: functional, cell-based, Homo sapiens; settings: Homo sapiens, LU-139
# Description: SANGER: Inhibition of human LU-139 cell growth in a cell viability assay.
# NB10 = type: functional, cell-based, Homo sapiens; settings: Homo sapiens, NB10;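 further: growth inhibition of NB10 cells, read out by a cell viability assay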
# Description: SANGER: Inhibition of human NB10 cell growth in a cell viability assay.
# NCI-H226 = type: functional, cell-based, Homo sapiens; settings: Homo sapiens, NCI-H226;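 further: cell viability read-out used to gauge growth inhibition of the cells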
# Description: SANGER: Inhibition of human NCI-H226 cell growth in a cell viability assay.
# MZ1-PC = type: functional, cell-based, Homo sapiens; settings: Homo sapiens, MZ1-PC;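 further: cell viability assay measuring growth inhibition of human MZ1-PC cells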
# Description: SANGER: Inhibition of human MZ1-PC cell growth in a cell viability assay.
# NCI-N87 = type: functional, cell-based, Homo sapiens; settings: Homo sapiens, NCI-N87;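 further: growth inhibition of human NCI-N87 cells, read out with a cell viability assay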
# Description: SANGER: Inhibition of human NCI-N87 cell growth in a cell viability assay.
# NCI-H1650 = type: functional, cell-based, Homo sapiens; settings: Homo sapiens, NCI-H1650;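 further: growth inhibition of human NCI-H1650 cells measured by a cell viability assay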
# Description: SANGER: Inhibition of human NCI-H1650 cell growth in a cell viability assay.
# HCC2157 = type: functional, cell-based, Homo sapiens; settings: Homo sapiens, HCC2157;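 further: growth inhibition of the cancer cell line, read out as cell viability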
# Description: SANGER: Inhibition of human HCC2157 cell growth in a cell viability assay.
# ML-2 = type: functional, cell-based, Homo sapiens; settings: Homo sapiens, ML-2;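 further: growth inhibition of ML-2 cells, measured with a cell viability readout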
# Description: SANGER: Inhibition of human ML-2 cell growth in a cell viability assay.
# A4-Fuk = type: functional, cell-based, Homo sapiens; settings: Homo sapiens, A4-Fuk;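 further: growth inhibition of A4-Fuk cells, read out by a cell viability assay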
# Description: SANGER: Inhibition of human A4-Fuk cell growth in a cell viability assay.
# ES6 = type: functional, cell-based, Homo sapiens; settings: Homo sapiens, ES6;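 further: growth inhibition of human ES6 cells, read out with a cell viability assay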
# Description: SANGER: Inhibition of human ES6 cell growth in a cell viability assay.
# TE-12 = type: functional, cell-based, Homo sapiens; settings: Homo sapiens, TE-12;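 further: growth inhibition of TE-12 cells, read out by a cell viability assay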
# Description: SANGER: Inhibition of human TE-12 cell growth in a cell viability assay.
# SHP77 = type: functional, cell-based, Homo sapiens, SHP-77; settings: Homo sapiens, SHP77;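 further: growth inhibition of human SHP-77 cells measured by a cell viability assay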
# Description: SANGER: Inhibition of human SHP-77 cell growth in a cell viability assay.
# GCIY = type: functional, cell-based, Homo sapiens; settings: Homo sapiens, GCIY;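 further: growth inhibition of the human GCIY cell line, read out by a cell viability assay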
# Description: SANGER: Inhibition of human GCIY cell growth in a cell viability assay.
# NCI-H2126 = type: functional, cell-based, Homo sapiens; settings: Homo sapiens, NCI-H2126;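 further: growth inhibition of the cancer cell line, determined with a cell viability readout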
# Description: SANGER: Inhibition of human NCI-H2126 cell growth in a cell viability assay.
# Lu-65 = type: functional, cell-based, Homo sapiens; settings: Homo sapiens, Lu-65;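 further: growth inhibition of Lu-65 cancer cells, read out by a cell viability assay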
# Description: SANGER: Inhibition of human LU-65 cell growth in a cell viability assay.
# SCH = type: functional, cell-based, Homo sapiens; settings: Homo sapiens, SCH;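 further: growth inhibition of human SCH cells, read out in a cell viability assay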
# Description: SANGER: Inhibition of human SCH cell growth in a cell viability assay.
# ATN-1 = type: functional, cell-based, Homo sapiens; settings: Homo sapiens, ATN-1;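 further: growth inhibition of human ATN-1 cells, read out with a cell viability assay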
# Description: SANGER: Inhibition of human ATN-1 cell growth in a cell viability assay.
# KP-N-YS = type: functional, cell-based, Homo sapiens; settings: Homo sapiens, KP-N-YS;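 further: cell viability assay measuring inhibition of cell line growth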
# Description: SANGER: Inhibition of human KP-N-YS cell growth in a cell viability assay.
# NCI-H1299 = type: functional, cell-based, Homo sapiens; settings: Homo sapiens, NCI-H1299;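 further: growth inhibition of human NCI-H1299 cells, read out by a cell viability assay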
# Description: SANGER: Inhibition of human NCI-H1299 cell growth in a cell viability assay.
# ETK-1 = type: functional, cell-based, Homo sapiens; settings: Homo sapiens, ETK-1;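 further: growth inhibition of human ETK-1 cells, read out with a cell viability assay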
# Description: SANGER: Inhibition of human ETK-1 cell growth in a cell viability assay.
# ES8 = type: functional, cell-based, Homo sapiens; settings: Homo sapiens, ES8;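 further: growth inhibition of human ES8 cells, read out with a cell viability assay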
# Description: SANGER: Inhibition of human ES8 cell growth in a cell viability assay.
# BV-173 = type: functional, cell-based, Homo sapiens; settings: Homo sapiens, BV-173
# Description: SANGER: Inhibition of human BV-173 cell growth in a cell viability assay.
# NCI-H1770 = type: functional, cell-based, Homo sapiens; settings: Homo sapiens, NCI-H1770;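 further: growth inhibition of NCI-H1770 cells determined with a viability readout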
# Description: SANGER: Inhibition of human NCI-H1770 cell growth in a cell viability assay.
# LB1047-RCC = type: functional, cell-based, Homo sapiens; settings: Homo sapiens, LB1047-RCC;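 further: inhibition of cell growth, determined with a cell viability assay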
# Description: SANGER: Inhibition of human LB1047-RCC cell growth in a cell viability assay.
# EW-3 = type: functional, cell-based, Homo sapiens; settings: Homo sapiens, EW-3;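 further: cell viability assay read-out, IC50 reflects inhibition of growth of the EW-3 cells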
# Description: SANGER: Inhibition of human EW-3 cell growth in a cell viability assay.
# Calu-6 = type: functional, cell-based, Homo sapiens; settings: Homo sapiens, Calu-6;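 further: growth of human Calu-6 cells, read out by a cell viability assay, IC50 marking inhibition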
# Description: SANGER: Inhibition of human Calu-6 cell growth in a cell viability assay.
# GT3TKB = type: functional, cell-based, Homo sapiens; settings: Homo sapiens, GT3TKB;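 further: growth inhibition of the cell line, read out with a cell viability assay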
# Description: SANGER: Inhibition of human GT3TKB cell growth in a cell viability assay.
# GOTO = type: functional, cell-based, Homo sapiens; settings: Homo sapiens, GOTO;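 further: growth inhibition of GOTO cells, read out by a cell viability assay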
# Description: SANGER: Inhibition of human GOTO cell growth in a cell viability assay.
# NCI-H209 = type: functional, cell-based, Homo sapiens; settings: Homo sapiens, NCI-H209;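 further: growth inhibition of human NCI-H209 cells, measured by a cell viability assay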
# Description: SANGER: Inhibition of human NCI-H209 cell growth in a cell viability assay.
# BE-13 = type: functional, cell-based, Homo sapiens; settings: Homo sapiens, BE-13;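 further: growth inhibition of human BE-13 cells, measured with a cell viability assay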
# Description: SANGER: Inhibition of human BE-13 cell growth in a cell viability assay.
# L-428 = type: functional, cell-based, Homo sapiens; settings: Homo sapiens, L-428
# Description: SANGER: Inhibition of human L-428 cell growth in a cell viability assay.
# SK-LMS-1 = type: functional, cell-based, Homo sapiens; settings: Homo sapiens, SK-LMS-1;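 further: growth inhibition of human SK-LMS-1 cells, read out with a cell viability assay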
# Description: SANGER: Inhibition of human SK-LMS-1 cell growth in a cell viability assay.
# CTV-1 = type: functional, cell-based, Homo sapiens; settings: Homo sapiens, CTV-1;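 further: growth inhibition of the cell line, read out with a cell viability assay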
# Description: SANGER: Inhibition of human CTV-1 cell growth in a cell viability assay.
# KLE = type: functional, cell-based, Homo sapiens; settings: Homo sapiens, KLE;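 further: growth inhibition of human KLE cells, read out with a cell viability assay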
# Description: SANGER: Inhibition of human KLE cell growth in a cell viability assay.
# HCE-4 = type: functional, cell-based, Homo sapiens; settings: Homo sapiens, HCE-4;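 further: cell viability assay measuring inhibition of growth in the human HCE-4 cell line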
# Description: SANGER: Inhibition of human HCE-4 cell growth in a cell viability assay.
compound,measurement,setting,value
COc1cc2ncn(-c3cc(OCc4ccccc4S(C)(=O)=O)c(C#N)s3)c2cc1OC [GSK-319347A],IC50,COLO-800,> 5 µM
same,IC50,AM-38,> 5 µM
same,IC50,HEL,> 5 µM
same,IC50,RCC10RGB,> 5 µM
same,IC50,GI-1,> 5 µM
same,IC50,SK-MEL-1,> 5 µM
same,IC50,D-502MG,> 5 µM
same,IC50,NEC8,> 5 µM
same,IC50,EW-1,> 5 µM
same,IC50,NB13,> 5 µM
same,IC50,NCI-H446,> 5 µM
same,IC50,NB69,> 5 µM
same,IC50,Becker,> 5 µM
same,IC50,HCE-T,> 5 µM
same,IC50,SF-126,> 5 µM
same,IC50,LU-139,> 5 µM
same,IC50,NB10,> 5 µM
same,IC50,NCI-H226,> 5 µM
same,IC50,MZ1-PC,> 5 µM
same,IC50,NCI-N87,> 5 µM
same,IC50,NCI-H1650,> 5 µM
same,IC50,HCC2157,> 5 µM
same,IC50,ML-2,> 5 µM
same,IC50,A4-Fuk,> 5 µM
same,IC50,ES6,> 5 µM
same,IC50,TE-12,> 5 µM
same,IC50,SHP77,> 5 µM
same,IC50,GCIY,> 5 µM
same,IC50,NCI-H2126,> 5 µM
same,IC50,Lu-65,> 5 µM
same,IC50,SCH,> 5 µM
same,IC50,ATN-1,> 5 µM
same,IC50,KP-N-YS,> 5 µM
same,IC50,NCI-H1299,> 5 µM
same,IC50,ETK-1,> 5 µM
same,IC50,ES8,> 5 µM
same,IC50,BV-173,> 5 µM
same,IC50,NCI-H1770,> 5 µM
same,IC50,LB1047-RCC,> 5 µM
same,IC50,EW-3,> 5 µM
same,IC50,Calu-6,> 5 µM
same,IC50,GT3TKB,> 5 µM
same,IC50,GOTO,> 5 µM
same,IC50,NCI-H209,> 5 µM
same,IC50,BE-13,> 5 µM
same,IC50,L-428,> 5 µM
same,IC50,SK-LMS-1,> 5 µM
same,IC50,CTV-1,> 5 µM
COc1cc2c(Nc3ccc(NC(=O)c4ccccc4)cc3)ncnc2cc1OCCCN1CCOCC1,IC50,COLO-800,1.7 µM
same,IC50,AM-38,> 4 µM
same,IC50,HEL,> 4 µM
same,IC50,RCC10RGB,> 4 µM
same,IC50,GI-1,3.26 µM
same,IC50,KLE,> 4 µM
same,IC50,SK-MEL-1,> 4 µM
same,IC50,D-502MG,3.97 µM
same,IC50,NEC8,> 4 µM
same,IC50,EW-1,> 4 µM
same,IC50,NB13,> 4 µM
same,IC50,NCI-H446,> 4 µM
same,IC50,NB69,3.23 µM
same,IC50,Becker,> 4 µM
same,IC50,HCE-T,> 4 µM
same,IC50,SF-126,> 4 µM
same,IC50,HCE-4,> 4 µM
same,IC50,LU-139,3.83 µM
same,IC50,NB10,> 4 µM
same,IC50,NCI-H226,> 4 µM
same,IC50,MZ1-PC,> 4 µM
same,IC50,NCI-N87,> 4 µM
same,IC50,NCI-H1650,> 4 µM
same,IC50,HCC2157,> 4 µM
same,IC50,ML-2,> 4 µM
same,IC50,A4-Fuk,3.77 µM
same,IC50,ES6,> 4 µM
same,IC50,TE-12,> 4 µM
same,IC50,SHP77,> 4 µM
same,IC50,GCIY,> 4 µM
same,IC50,NCI-H2126,> 4 µM
same,IC50,Lu-65,> 4 µM
same,IC50,SCH,> 4 µM
same,IC50,ATN-1,> 4 µM
same,IC50,KP-N-YS,> 4 µM
same,IC50,NCI-H1299,> 4 µM
same,IC50,ETK-1,> 4 µM
same,IC50,ES8,0.498 µM
same,IC50,BV-173,1.76 µM
same,IC50,NCI-H1770,> 4 µM
same,IC50,LB1047-RCC,> 4 µM
same,IC50,EW-3,> 4 µM
same,IC50,Calu-6,> 4 µM
same,IC50,GT3TKB,> 4 µM
same,IC50,GOTO,> 4 µM
same,IC50,NCI-H209,1.17 µM
same,IC50,BE-13,0.844 µM
same,IC50,L-428,> 4 µM
same,IC50,CTV-1,2.07 µM

# — ChEMBL document CHEMBL1201861, “Genomics of Drug Sensitity in Cancer screening data, Wellcome Trust Sanger Institute”
